Measured values taken from US20040191849A1, “Method for identifying fungicides” (priority 2002, published 2004).

Experiments:
RPI = assay: Spectrophotometric RPI assay, increase in absorption at 290 nm (KM determination); conditions: read-out: KM value; substrate of RPI; Lineweaver-Burk plot; 400 ng of RPI; without coupled enzymes
Method: The measurement was carried out with 400 ng of RPI.
The reaction volume amounted to 700 μl.

Erysiphe graminis = assay: Induction of resistance to Erysiphe graminis in a plant; assay type: in vivo; conditions: Hordeum vulgaris; inoculated with Erysiphe graminis 4 days after treatment; 100 = maximum activity, 0 = no activity
From the text: In the case of Erysiphe graminis, the induction of resistance to this fungus, in a plant, was furthermore tested by way of example. To this end, the plant is inoculated with the pathogen 4 days after treatment of the plant with the test substance. The activity of the substance is given as efficacy in %.

[1] = tested on: ribose-phosphate isomerase; conditions: Jung et al., Arch. Biochem. Biophys. 373 (2000) 409-417; cited from earlier work

Compound: O=C[C@H](O)[C@H](O)[C@H](O)COP(=O)(O)O [D-ribose-5-phosphate]
- Km (RPI): 6.3 mM

Compound: COc1ccc(S(=O)(=O)N(C)C)cc1CCC(C)NCC1CC2(CCCC2)Oc2ccccc21.O=C(O)/C=C/C(=O)O (stereo not drawn) [Example 2]
- resistance induction (efficacy) (Erysiphe graminis): 50%

Compound: phosphate
- ribose-phosphate isomerase inhibitor strength [1]: weak
